Laboratory results as given in ChEMBL document CHEMBL4706632, “Development of Potential Antitumor Agents from the Scaffolds of Plant-Derived Terpenoid Lactones” (J Med Chem, 2020).

Columns and labels:
Assay type in all cases: functional, cell-based
MCF7 [1] = assay: Antiproliferative activity against human MCF7 cells by tetrazolium-based semiautomated colorimetric assay
Jurkat = assay: Cytotoxicity against human Jurkat cells incubated for 72 hrs by MTT assay
CCRF-CEM = assay: Cytotoxicity against human CEM cells incubated for 72 hrs by MTT assay
HL-60 = assay: Cytotoxicity against human HL-60 cells incubated for 72 hrs by MTT assay; details: HL-60, 72 h
[2] = Cytotoxicity against human MDA-Panc-28 cells incubated for 24 hrs by MTS method; details: MDA-Panc-28, 24 h
HT-29 [3] = assay: Cytotoxicity against human HT-29 cells incubated for 24 hrs by MTS method; details: HT-29, 24 h
Bel-7402 = assay: Cytotoxicity against human Bel-7402 cells incubated for 24 hrs by MTS method; details: Bel-7402, 24 h
HT-29 [4] = assay: Cytotoxicity against human HT-29 cells incubated for 72 hrs by sulforhodamine B assay; details: HT-29, 72 h
MDA-MB-435 = assay: Antiproliferative activity against human MDA-MB-435 cells incubated for 48 hrs by [3H]-thymidine incorporation assay
SW480 = assay: Antiproliferative activity against human SW480 cells incubated for 72 hrs by MTT assay; details: SW480, 72 h
MCF7 [5] = assay: Antiproliferative activity against human MCF7 cells incubated for 48 hrs by [3H]-thymidine incorporation assay
HeLa = assay: Cytotoxicity against human HeLa cells
NCI-H446 = assay: Cytotoxicity against human NCI-H446 cells
MCF7 [6] = assay: Cytotoxicity against human MCF7 cells
MCF7 [7] = assay: Cytotoxicity against human MCF7 cells incubated for 48 hrs by sulforhodamine B staining based spectrophotometric assay; details: MCF7, 48 h
UACC-62 = assay: Cytotoxicity against human UACC-62 cells incubated for 48 hrs by sulforhodamine B staining based spectrophotometric assay; details: UACC-62, 48 h

## C[C@H]1[C@@H](CCC(=O)NCC[C@H]2O[C@@H]3O[C@]4(C)CC[C@H]5[C@H](C)CC[C@@H]([C@H]2C)[C@@]35OO4)O[C@@H]2O[C@@]3(C)CC[C@H]4[C@H](C)CC[C@@H]1[C@@]24OO3
MCF7 [1]
  IC50: 0.008 µM

## CC(O)CC(=O)O[C@@]1(C)CO[C@@]2(C1)OC(=O)[C@H]([C@@H]1CC[C@]34C[C@]13C=C[C@@H]1[C@@]3(C)CC=C5C[C@@H](Cc6ccccc6)OC[C@]5(C)[C@@H]3C[C@@H](O)[C@]14C)[C@H]2O (stereo partly specified)
Jurkat
  IC50: 1.8 µM
CCRF-CEM
  IC50: 3.1 µM
HL-60
  IC50: 5.6 µM

## CO[C@@]12OC(=O)C(CO)=C1[C@H]1O[C@]13CC[C@@H]1C(C)(C)CCC[C@@]1(C)[C@@H]3[C@H]2O
[2]
  IC50: > 50 µM
HT-29 [3]
  IC50: > 50 µM
Bel-7402
  IC50: > 50 µM

## COC/C(C)=C/[C@@H]1OC(=O)[C@H]([C@@H]2CC[C@]34C[C@]23C=C[C@@H]2[C@@]3(C)CC=C5C[C@@H](c6ccc7c(c6)OCO7)OC[C@]5(C)[C@@H]3C[C@@H](O)[C@]24C)[C@H]1O
HT-29 [4]
  IC50: > 10 µM

## CC1(C)OC(=O)C=C[C@]2(C)[C@H]3CC[C@@](C)([C@@H](O[C@H]4O[C@H](CO)[C@@H](O)[C@H](O)[C@H]4O)c4ccoc4)[C@@]4(O[C@@H]4C(=O)O)[C@]3(C)C(=O)C[C@@H]12
MDA-MB-435
  IC50: 10 µM
SW480
  IC50: 60 µM
MCF7 [5]
  IC50: 3.2 µM

## C[C@@]12[C@H](O)C=C[C@]3(C)C(=O)O[C@H](C=C4COC(=O)C[C@H]41)[C@H]23
HeLa
  IC50: 10 µM
NCI-H446
  IC50: 16 µM
MCF7 [6]
  IC50: 11 µM

## CC(=O)O[C@H]1C=C2C(=O)C3=C(C)C(=O)O[C@@H]3C[C@H]2[C@]2(C)CCCC(C)(C)[C@@H]12
MCF7 [7]
  IC50: 0.13 µM
UACC-62
  IC50: 0.08 µM
